This is an account of results in article PMC2954223, “Structure of a tryptophanyl-tRNA synthetase containing an iron–sulfur cluster” (Acta Crystallographica Section F: Structural Biology and …, 2010).

Molecules are shown by their SMILES.

Assay [1] addresses T1, TmTrpRS (TM0492) (Thermotoga maritima, UniProt Q9WYW2).
T1 construct: gene trpS; full-length with noncleavable N-terminal tag MGSDKIHHHHHH (kept in crystal), expressed in E. coli DL41; native TTG start codon lies in forward primer after the tag; model residues 0-328, 113-119 disordered; homodimer
T1 sequence (Q9WYW2 1-328): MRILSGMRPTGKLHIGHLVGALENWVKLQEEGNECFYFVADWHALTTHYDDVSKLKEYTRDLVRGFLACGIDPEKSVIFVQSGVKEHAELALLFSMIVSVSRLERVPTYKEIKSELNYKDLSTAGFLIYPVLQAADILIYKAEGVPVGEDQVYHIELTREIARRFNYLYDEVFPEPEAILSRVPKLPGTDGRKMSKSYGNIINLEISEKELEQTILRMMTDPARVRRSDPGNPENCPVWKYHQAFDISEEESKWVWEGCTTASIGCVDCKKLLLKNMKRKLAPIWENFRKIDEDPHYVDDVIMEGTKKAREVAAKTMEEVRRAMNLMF
As to the kind of experiment: X-ray crystal structure, […] Å. The assay is classed as binding. As to conditions: active site (Rossmann-fold domain); endogenously bound, not added; crystallised at pH 6.5, 277 K.

Assay [2] concerns the target T1, TmTrpRS (TM0492). As to the kind of experiment: X-ray crystal structure, […] Å; X-ray fluorescence scan; mass spectrometry. It counts as binding. As to conditions: TAB domain; chelated by Cys236, Cys259, Cys266, Cys269; co-purified; crystallised at pH 6.5, 277 K.

Consider `N[C@@H](Cc1c[nH]c2ccccc12)C(=O)O` [L-tryptophan], for which the “X-ray crystal structure, 2.50 Å” value in assay [1] was “the structure revealed a bound L-tryptophan molecule in the Trp-binding pocket of the active site”.

With `[S]12[Fe]3[S]4[Fe]1[S]1[Fe]2[S]3[Fe]41` [[4Fe–4S] cluster], the “X-ray crystal structure, 2.50 Å; X-ray fluorescence scan; mass spectrometry” value in assay [2] is “The [4Fe–4S] cluster is chelated by the side chains of Cys236, Cys259, Cys266 and Cys269”.
